Test results published in PubChem BioAssay (NCI).
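Five concentrations, 48 hours, 96-well plates. Definition used: TGI = concentration required for complete inhibition of growth.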

Columns and labels:
Assay in all cases: NCI-60 cell line screen, 48 h
[1] = tested on: 786-0 renal
[2] = tested on: A498 renal
[3] = tested on: A549 NSCLC
[4] = tested on: ACHN renal
[5] = tested on: BT-549 breast
[6] = tested on: CAKI-1 renal
[7] = tested on: CCRF-CEM leukemia
[8] = tested on: COLO 205 colon
[9] = tested on: DU-145 prostate
[10] = tested on: EKVX NSCLC
[11] = tested on: HCC-2998 colon
[12] = tested on: HCT-116 colon
[13] = tested on: HCT-15 colon
[14] = tested on: HL-60(TB) leukemia
[15] = tested on: HOP-62 NSCLC
[16] = tested on: HOP-92 NSCLC
[17] = tested on: HS 578T breast
[18] = tested on: HT29 colon
[19] = tested on: IGROV1 ovarian
[20] = tested on: K-562 leukemia
[21] = tested on: KM12 colon
[22] = tested on: LOX IMVI melanoma
[23] = tested on: M14 melanoma
[24] = tested on: MALME-3M melanoma
[25] = tested on: MCF7 breast
[26] = tested on: MDA-MB-231 breast
[27] = tested on: MDA-MB-435
[28] = tested on: MDA-N
[29] = tested on: NCI-H226 lung
[30] = tested on: NCI-H23 lung
[31] = tested on: NCI-H460 lung
[32] = tested on: NCI-H522 lung
[33] = tested on: NCI/ADR-RES ovarian
[34] = tested on: OVCAR-3 ovarian
[35] = tested on: OVCAR-4 ovarian
[36] = tested on: OVCAR-5 ovarian
[37] = tested on: OVCAR-8 ovarian
[38] = tested on: PC-3 prostate
[39] = tested on: RXF 393 renal
[40] = tested on: SF-268 CNS
[41] = tested on: SF-295 CNS
[42] = tested on: SF-539 CNS
[43] = tested on: SK-MEL-2 melanoma
[44] = tested on: SK-MEL-28 melanoma
[45] = tested on: SK-MEL-5 melanoma
[46] = tested on: SK-OV-3 ovarian
[47] = tested on: SN12C renal
[48] = tested on: SNB-19 CNS
[49] = tested on: SNB-75 CNS
[50] = tested on: SR leukemia
[51] = tested on: SW-620 colon
[52] = tested on: T-47D breast
[53] = tested on: TK-10 renal
[54] = tested on: U251 CNS
[55] = tested on: UACC-257 melanoma
[56] = tested on: UACC-62 melanoma
[57] = tested on: UO-31 renal
[58] = tested on: MOLT-4 leukemia
[59] = tested on: RPMI-8226 leukemia

Measured: TGI

Cn1/c(=N\N=C2\C=C3CCCCC3(C)CC2)sc2ccccc21 (stereo unspecified)
> 100 µM: [1] | [2] | [3] | [4] | [5] | [6] | [7] | [8] | [9] | [10] | [11] | [12] | [13] | [14] | [15] | [16] | [17] | [18] | [19] | [20] | [21] | [22] | [23] | [24] | [25] | [26] | [27] | [28] | [29] | [30] | [31] | [32] | [33] | [34] | [35] | [36] | [37] | [38] | [39] | [40] | [41] | [42] | [43] | [44] | [45] | [46] | [47] | [48] | [49] | [50] | [51] | [52] | [53] | [54] | [55] | [56] | [57]

O=CCCCCCOCc1ccccc1
> 43.7 µM: [14]
> 67.9 µM: [12]
> 31.7 µM: [20]
> 54.9 µM: [31]
34.9 µM: [22]
> 56.8 µM: [59]
> 60.4 µM: [41]
> 66.8 µM: [6]
> 82.6 µM: [30]
32.6 µM: [47]
37.4 µM: [58]
> 69.9 µM: [7]
68.1 µM: [1]
> 54.4 µM: [45]
> 89.4 µM: [56]
> 100 µM: [2] | [3] | [4] | [5] | [8] | [9] | [10] | [11] | [13] | [16] | [17] | [18] | [19] | [21] | [23] | [24] | [25] | [26] | [27] | [28] | [29] | [32] | [33] | [34] | [35] | [36] | [37] | [38] | [39] | [40] | [42] | [43] | [44] | [46] | [48] | [49] | [50] | [51] | [52] | [53] | [54] | [55] | [57]
79.9 µM: [15]
